Where two headings read alike, the source gives them in different places.
Test system: HCV proteins in Rep5.1 cells (replicon cell line)
Experiment: Inhibitory activity of HCV: cell-based ELISA in replicon cell line Rep5.1 (decrease of HCV proteins)
Set-up: species or system hepatitis C virus
Conditions: Hepatitis C virus, 72 h, Rep5.1 cells, 72 hours with drug
How it was run: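 HCV protein loss was quantified by ELISA on methanol/acetone-fixed cells 72 h after drug addition, probing with selected HCV-positive human plasma, and IC50 was defined as 50% reduction relative to untreated wells. The cells were Rep5.1 replicon cells cultured in DMEM-10 with 500 μg/ml G418, plated at 5000 per well and dosed with serial dilutions after 4 h attachment.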

[1] = concentration at which 50% of HCV proteins was decreased, Table 2, read-out: IC50
[2] = decrease of HCV proteins measured by HCV antibody, Table 1, read-out: Level (IC50 values classified)

Row | Structure (SMILES) | IC50 [1] | IC50 [2]
1 | CC1=C(C(=O)OCCc2ccccc2C)CNC(=S)N1 [Compound 133, 6-methyl-2-thioxo-1,2,3,4-tetrahydro-pyrimidine-5-carboxylic acid 2-o-tolyl-ethyl ester] | < 400 nM | < 1000 nM
2 | CC1=C(C(=O)OCc2nc3ccccc3o2)CNC(=S)N1 [Compound 238, 6-methyl-2-thioxo-1,2,3,4-tetrahydro-pyrimidine-5-carboxylic acid benzoxazol-2-ylmethyl ester] | 3000 nM | 1000 to 10000 nM
3 | CC1=C(C(=O)OCCc2ccsc2)C(c2ccccc2)NC(=S)N1 (stereo not drawn) [4′, 6-methyl-4-phenyl-2-thioxo-1,2,3,4-tetrahydro-pyrimidine-5-carboxylic acid 2-thiophen-3-yl-ethyl ester] | 51000 nM | > 20000 nM
4 | C=CCOC(=O)C1=C(C)NC(=S)NC1 [Compound 16, 6-methyl-2-thioxo-1,2,3,4-tetrahydro-pyrimidine-5-carboxylic acid allyl ester] | 74000 nM | > 20000 nM
5 | CC1=C(C(=O)OCc2ccccc2S(C)(=O)=O)CNC(=S)N1 [Compound 112, 6-methyl-2-thioxo-1,2,3,4-tetrahydro-pyrimidine-5-carboxylic acid 2-methanesulfonyl-benzyl ester] | > 100000 nM | > 20000 nM
6 | COc1ccc(COC(=O)C2=C(C)NC(=S)NC2)c(C)c1C [Compound 138, 6-methyl-2-thioxo-1,2,3,4-tetrahydro-pyrimidine-5-carboxylic acid 4-methoxy-2,3-dimethyl-benzyl ester] | 20000 nM | 10000 to 20000 nM
7 | CC1=C(C(=O)OC2CCc3ccccc32)CNC(=S)N1 (stereo not drawn) [Compound 123, 6-methyl-2-thioxo-1,2,3,4-tetrahydro-pyrimidine-5-carboxylic acid indan-1-yl ester] | 8000 nM | 1000 to 10000 nM
8 | CC1=C(C(=O)OCc2ccc(C)c([N+](=O)[O-])c2)CNC(=S)N1 [Compound 136, 6-methyl-2-thioxo-1,2,3,4-tetrahydro-pyrimidine-5-carboxylic acid 3-nitro-4-methyl-benzyl ester] | 600 nM | < 1000 nM
9 | CC1=C(C(=O)OCC2CCCC2)CNC(=S)N1 [Compound 68, 6-methyl-2-thioxo-1,2,3,4-tetrahydro-pyrimidine-5-carboxylic acid cyclopentylmethyl ester] | 700 nM | < 1000 nM
10 | CC1=C(C(=O)OCCC2CC2)CNC(=S)N1 [2′, 6-methyl-2-thioxo-1,2,3,4-tetrahydro-pyrimidine-5-carboxylic acid 2-cyclopropyl-ethyl ester] | 2400 nM | 1000 to 10000 nM
11 | CSc1ccccc1COC(=O)C1=C(C)NC(=S)NC1 [Compound 110, 6-methyl-2-thioxo-1,2,3,4-tetrahydro-pyrimidine-5-carboxylic acid 2-methylsulfanyl-benzyl ester] | 17000 nM | 1000 to 10000 nM
12 | CC1=C(C(=O)OCCc2c[nH]c3ccccc23)CNC(=S)N1 [Compound 102, 6-methyl-2-thioxo-1,2,3,4-tetrahydro-pyrimidine-5-carboxylic acid 2-(1H-indol-3-yl)-ethyl ester] | 2000 nM | 1000 to 10000 nM
13 | COc1ccc(CCOC(=O)C2=C(C)NC(=S)NC2)cc1 [Compound 92, 6-methyl-2-thioxo-1,2,3,4-tetrahydro-pyrimidine-5-carboxylic acid 2-(4-methoxy-phenyl)-ethyl ester] | 1000 nM | < 1000 nM
14 | CC1=C(C(=O)OCc2ccc(Cl)cc2Cl)CNC(=S)N1 [Compound 41, 6-methyl-2-thioxo-1,2,3,4-tetrahydro-pyrimidine-5-carboxylic acid 2,4-dichloro-benzyl ester] | < 400 nM | < 1000 nM
15 | COc1ccc(OC)c(COC(=O)C2=C(C)NC(=S)NC2)c1 [Compound 174, 6-methyl-2-thioxo-1,2,3,4-tetrahydro-pyrimidine-5-carboxylic acid 2,5-dimethoxy-benzyl ester] | 7000 nM | 1000 to 10000 nM
16 | CC1=C(C(=O)OCCc2ccsc2)C(CCl)NC(=S)N1 (stereo not drawn) [76′, 4-chloromethyl-6-methyl-2-thioxo-1,2,3,4-tetrahydro-pyrimidine-5-carboxylic acid 2-thiophen-3-yl-ethyl ester] | 62000 nM | > 20000 nM
17 | CC1=C(C(=O)OCc2ccc([S+](C)[O-])cc2)CNC(=S)N1 (stereo not drawn) [Compound 52, 6-methyl-2-thioxo-1,2,3,4-tetrahydro-pyrimidine-5-carboxylic acid 4-methylsulfinyl-benzyl ester] | 700 nM | < 1000 nM
18 | CC1=C(C(=O)OCc2cccc(F)c2)CNC(=S)N1 [Compound 83, 6-methyl-2-thioxo-1,2,3,4-tetrahydro-pyrimidine-5-carboxylic acid 3-fluoro-benzyl ester] | 1000 nM | < 1000 nM
19 | CC(=O)OCC1NC(=S)NC(C)=C1C(=O)OCCc1cccc(Cl)c1 (stereo not drawn) [44″, 4-acetoxymethyl-6-methyl-2-thioxo-1,2,3,4-tetrahydro-pyrimidine-5-carboxylic acid 2-(3-chloro-phenyl)-ethyl ester] | 5000 nM | 1000 to 10000 nM
20 | CC1=C(C(=O)OCC=Cc2ccsc2)C(CF)NC(=S)N1 (stereo not drawn) [Compound 269, 4-fluoromethyl-6-methyl-2-thioxo-1,2,3,4-tetrahydro-pyrimidine-5-carboxylic acid 3-thiophen-3-yl-allyl ester] | 5000 nM | 1000 to 10000 nM
21 | CC1=C(C(=O)OCCCc2ccccc2)CNC(=S)N1 [Compound 14, 6-methyl-2-thioxo-1,2,3,4-tetrahydro-pyrimidine-5-carboxylic acid 3-phenyl-propyl ester] | 200 nM | < 1000 nM
22 | CC1=C(C(=O)OCCCc2ccsc2)CNC(=S)N1 [Compound 243, 6-methyl-2-thioxo-1,2,3,4-tetrahydro-pyrimidine-5-carboxylic acid 3-thiophen-3-yl-propyl ester] | < 400 nM | < 1000 nM
23 | CC1=C(C(=O)OCc2ccc(C)cc2)CNC(=S)N1 [Compound 89, 6-methyl-2-thioxo-1,2,3,4-tetrahydro-pyrimidine-5-carboxylic acid 4-methyl-benzyl ester] | 800 nM | < 1000 nM
24 | COc1ccc(CSC(=O)C2=C(C)NC(=S)NC2)cc1 [Compound 121, 6-methyl-2-thioxo-1,2,3,4-tetrahydro-pyrimidine-5-carbothioic acid S-(4-methoxy-benzyl)ester] | 500 nM | < 1000 nM
25 | COCC1NC(=S)NC(C)=C1C(=O)OCc1ccccc1 (stereo not drawn) [Compound 109, 4-methoxymethyl-6-methyl-2-thioxo-1,2,3,4-tetrahydro-pyrimidine-5-carboxylic acid benzyl ester] | 100000 nM | > 20000 nM
26 | CC1=C(C(=O)OCCc2ccsc2F)C(CF)NC(=S)N1 (stereo not drawn) [1′, 4-fluoromethyl-6-methyl-2-thioxo-1,2,3,4-tetrahydro-pyrimidine-5-carboxylic acid 2-(2-fluoro-thiophen-3-yl)-ethyl ester] | 1800 nM | 1000 to 10000 nM
27 | CC1=C(C(=O)OCc2ccc(C)c(C)c2)CNC(=S)N1 [Compound 76, 6-methyl-2-thioxo-1,2,3,4-tetrahydro-pyrimidine-5-carboxylic acid 3,4-dimethyl-benzyl ester] | 600 nM | < 1000 nM

— patent US20060116390A1, “Hepatitis c virus inhibitors” (priority 2003, published 2006)
